Data on 20 compounds can be found in PMC4102012 (Current chemical biology, 2013).

A word on the IC50: it is the concentration at which inhibition is half-maximal.

Data set [1] concerns the target T1, HsPBGS oligomeric equilibrium (hexamer/octamer) (Homo sapiens, UniProt P13716, C162A/K59N).
T1 sequence (P13716 1-330 K59N/C162A): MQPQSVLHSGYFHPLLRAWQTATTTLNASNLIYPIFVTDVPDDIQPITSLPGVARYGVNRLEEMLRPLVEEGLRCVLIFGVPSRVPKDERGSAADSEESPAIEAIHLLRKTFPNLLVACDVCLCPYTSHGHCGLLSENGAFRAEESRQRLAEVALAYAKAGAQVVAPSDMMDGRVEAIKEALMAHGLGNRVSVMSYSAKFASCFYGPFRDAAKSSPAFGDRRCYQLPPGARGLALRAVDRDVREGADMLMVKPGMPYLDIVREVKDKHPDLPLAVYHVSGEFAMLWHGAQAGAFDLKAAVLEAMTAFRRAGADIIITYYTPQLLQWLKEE
The conditions noted are these: for Effect on HsPBGS oligomeric distribution, in words: native PAGE.

Data set [2] deals with T2, human porphobilinogen synthase (HsPBGS) (Homo sapiens, UniProt P13716, C162A/K59N).
T2 sequence (P13716 1-330 K59N/C162A): T1 sequence (P13716 1-330 K59N/C162A)
Put plainly: biochemical. Format: biochemical.

The target of data set [3] is T1, HsPBGS oligomeric equilibrium (hexamer/octamer). The experiment in a line: Initial native PAGE screen of the NTP library. The conditions noted are these: 2 mM compound, 40 °C 30 min.
In data set [4] the target is PBGS from Pseudomonas aeruginosa (Pseudomonas aeruginosa, UniProt Q59643). The experiment in a line: Inhibition of PBGS from Pseudomonas aeruginosa. The conditions noted are these: data not shown. Format: biochemical.
In data set [5] the target is T3, PBGS from Pisum sativum (green pea) (Pisum sativum, UniProt P30124).
T3 sequence (P30124 1-398): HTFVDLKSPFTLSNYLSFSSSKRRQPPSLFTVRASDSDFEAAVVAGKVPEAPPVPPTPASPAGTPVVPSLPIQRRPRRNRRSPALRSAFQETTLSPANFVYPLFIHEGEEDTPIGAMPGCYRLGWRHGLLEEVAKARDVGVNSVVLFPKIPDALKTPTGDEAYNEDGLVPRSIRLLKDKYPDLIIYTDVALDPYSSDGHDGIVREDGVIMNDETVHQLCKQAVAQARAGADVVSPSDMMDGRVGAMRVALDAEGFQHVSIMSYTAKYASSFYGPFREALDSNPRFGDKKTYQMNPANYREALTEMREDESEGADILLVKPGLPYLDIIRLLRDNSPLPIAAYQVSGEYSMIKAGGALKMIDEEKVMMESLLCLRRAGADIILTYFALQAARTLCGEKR
Put plainly: Inhibition of PBGS from Pisum sativum. The conditions noted are these: data not shown. Format: biochemical.

The test system of data set [6] is PBGS from Yersinia enterocolitica. The experiment in a line: Inhibition of PBGS from Yersinia enterocolitica. As to conditions: data not shown. Format: biochemical.
In the next data set the test system is HsPBGS. As to conditions: Johns Hopkins Clinical Compounds Library, native PAGE; ref [15]; cited from earlier work.
The conditions of data set [7]: reagents compatible with the HsPBGS activity assay.
The mark [8] stands for this setting: percentage of HsPBGS hexamer at 20 mM compound, 42 °C 1 h, no substrate.
The mark [9] stands for this setting: fit of the inhibition curve, 0 = hyperbolic decay to zero.
[10] abbreviates: at 3 mM compound, sum of hexameric and dimeric bands (~2:1) (footnote f).
The mark [11] stands for this setting: preincubation 42 °C 1 h, 10 μg/mL HsPBGS, 10 mM substrate, final pH 7.8.
Where [12] appears, read: at 2 mM compound (highest concentration, footnote d).

Several values for one entry are separate records, joined by “and”; a condition that tells them apart may be missing. Identical values can stand only once. Like-named read-outs stand apart in the source and are kept apart here.

Sequence of PBGS from Pseudomonas aeruginosa (Q59643 whole entry): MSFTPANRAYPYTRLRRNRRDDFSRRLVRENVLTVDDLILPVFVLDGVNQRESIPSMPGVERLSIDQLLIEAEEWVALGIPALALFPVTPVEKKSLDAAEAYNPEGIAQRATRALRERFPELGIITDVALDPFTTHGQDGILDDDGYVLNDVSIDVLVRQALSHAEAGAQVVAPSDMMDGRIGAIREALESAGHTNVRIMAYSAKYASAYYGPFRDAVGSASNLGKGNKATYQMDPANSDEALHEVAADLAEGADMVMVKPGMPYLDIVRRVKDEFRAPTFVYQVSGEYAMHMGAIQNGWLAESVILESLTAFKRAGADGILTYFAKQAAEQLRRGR

`O=Cc1ccc(Cl)cc1Cl` [2,4-Dichlorobenzaldehyde]: the “Effect on HsPBGS oligomeric distribution, in words” value (shortened to “Effect”) in data set [1] is given as “very effective at stabilizing the HsPBGS hexamer”. Besides, the “Mole Fraction Hexamer max (obsd)” value in data set [1] (setting [8]) is on record as 86.2 ± 0.7%. In addition, in data set [2], the IC50 was determined as 107 ± 4 µM and the “Inhibition of HsPBGS activity, in words” value is “very poor inhibitors of HsPBGS activity”. The “Result of initial screen (increase of mole fraction of hexamer)” value in data set [3] was “preliminary hits”.

`O=Cc1c(Cl)cccc1Cl` [2,6-Dichlorobenzaldehyde]: the “Mole Fraction Hexamer max (obsd)” value in data set [1] is 100% and 100 ± 0%. For the same compound, in data set [2], the “FAmin (minimum fractional activity derived from the titration)” value turned out to be 0% and the IC50 came to 15.2 ± 1.5 µM.

Consider `O=Cc1ccccc1Cl` [2-Chlorobenzaldehyde], for which, in data set [1] (setting [8]), the “Mole Fraction Hexamer max (obsd)” value amounted to 91.8 ± 0.5%. Moreover, half-maximal inhibition in data set [2] (IC50) was put at 44.6 ± 4.9 µM. The “FAmin (minimum fractional activity derived from the titration)” value in data set [2] (setting [9]) was found to be 0%.

As for `O=Cc1ccc(Cl)c(Cl)c1` [3,4-Dichlorobenzaldehyde], the “Mole Fraction Hexamer max (obsd)” value in data set [1] (setting [8]) stood at 30.4 ± 2.2%. For the same compound, the 50% inhibitory concentration (IC50) in data set [2] was 26.6 ± 2 µM. Besides, the “FAmin (minimum fractional activity derived from the titration)” value in data set [2] (setting [9]) is recorded as 0%.

Turning to `O=Cc1cccc(Br)c1` [3-Bromobenzaldehyde], the “Effect” value in data set [1] is listed as “very effective at stabilizing the HsPBGS hexamer”. Further, in data set [1] (setting [8]), the “Mole Fraction Hexamer max (obsd)” value is 89.9 ± 3.4%. In data set [2], the IC50 turned out to be 21.5 ± 3.5 µM and the “Inhibition of HsPBGS activity, in words” value is on record as “very poor inhibitors of HsPBGS activity”. Also, the “FAmin (minimum fractional activity derived from the titration)” value in data set [2] (setting [9]) is 80.8 ± 1.2%. For the same compound, the “Result of initial screen (increase of mole fraction of hexamer)” value in data set [3] is recorded as “preliminary hits”.

As for `CC(=O)[O-].CC(=O)[O-].[Cd+2]` [Cadmium acetate], the “Mole Fraction Hexamer max (obsd)” value in data set [1] (setting [10]) is reported as 92.2 ± 0.6 ^f %. Further, in data set [2] (setting [9]), the “FAmin (minimum fractional activity derived from the titration)” value came to 16.7 ± 4.0%. The compound further registered a half-inhibitory concentration (IC50) in data set [2] (setting [11]) of 3.6 ± 0.7 µM.

Take `[Cl][Cd][Cl]` [Cadmium chloride]: the “Mole Fraction Hexamer max (obsd)” value in data set [1] (setting [10]) is 94.9 ± 3.3 ^f %. Besides, the “FAmin (minimum fractional activity derived from the titration)” value in data set [2] (setting [9]) came out at 9.2 ± 4.5%. For the same compound, it took 6.9 ± 1.2 µM to reach half-maximal inhibition in data set [2] (setting [11]) (IC50).

In the case of `O=C1[C@H]2CC=CC[C@H]2C(=O)N1SC(Cl)(Cl)Cl` [Captan, (3aR,7aS)-2-[(trichloromethyl)sulfanyl]-3a,4,7,7a-tetrahydro-1H-isoindole-1,3(2H)-dione], the “Mole Fraction Hexamer max (obsd)” value in data set [1] (setting [12]) was 72.3 ± 0.3% and 72.3 ± 0.2 ^d %. This compound also gave an IC50 in data set [2] of 3 ± 0.3 µM. For the same compound, in data set [2] (setting [9]), the “FAmin (minimum fractional activity derived from the titration)” value came to 0%.

For `c1cc(OCC2CO2)cc(OCC2CO2)c1` (stereo not drawn) [Diglycidyl resorcinol ether], the “Mole Fraction Hexamer max (obsd)” value in data set [1] (setting [8]) is given as 87.4 ± 2.7%. For the same compound, in data set [2], the IC50 came to 36.3 ± 2.4 µM. For the same compound, the “FAmin (minimum fractional activity derived from the titration)” value in data set [2] (setting [9]) is reported as 0%.

`COC(=O)c1ccc(C=O)cc1` [Methyl-p-formyl benzoate]: in data set [1] (setting [8]), the “Mole Fraction Hexamer max (obsd)” value is 86.5 ± 1.4%. The “FAmin (minimum fractional activity derived from the titration)” value in data set [2] (setting [9]) was 0%. For the same compound, 40.3 ± 0.9 µM corresponded to half-maximal inhibition in data set [2] (setting [11]) (IC50).

For `O=C1OC(O)C(C(Cl)Cl)=C1Cl` (stereo not drawn) [Mutagen X, 3-chloro-4-(dichloromethyl)-5-hydroxy-2(5H-furanone)], in data set [1], the “Effect” value is listed as “increase the ratio of hexamer to octamer”. Further, the “Inhibition potency relative to HsPBGS, in words” value in data set [4], in data set [5] and in data set [6] was “comparable potency” each time. For the same compound, the “FAmin (minimum fractional activity derived from the titration)” value in data set [2] (setting [9]) amounted to 0%. The compound further registered a 50% inhibitory concentration (IC50) in data set [2] (setting [11]) of 1.4 ± 0.1 µM.

Regarding `CNc1ccc(O)cc1.CNc1ccc(O)cc1.O=S(=O)(O)O` [N-methyl-p-aminophenol sulfate], the “Mole Fraction Hexamer max (obsd)” value in data set [1] (setting [8]) is listed as 68.1 ± 0.9%. The “FAmin (minimum fractional activity derived from the titration)” value in data set [2] (setting [9]) came to 0%. In data set [2] (setting [11]), this compound returned a half-maximal inhibitory concentration (IC50) of 13.7 ± 1.3 µM.

For the compound `O=C1CN(/N=C/c2ccc([N+](=O)[O-])o2)C(=O)N1` [Nitrofurantoin, (E)-1-[(5-nitro-2-furyl)methylideneamino]imidazolidine-2,4-dione, reference compound], in data set [2], the “FAmin (minimum fractional activity derived from the titration)” value came out at 0% and the IC50 was 5.9 ± 0.4 µM. Also, in the data set on HsPBGS, the “Result of previous library screen” value is reported as “not identified as a hit”.

As for `NC(=O)NN=Cc1ccc([N+](=O)[O-])o1` [Nitrofurazone, 5-nitro-2-furaldehyde semicarbazone, reference compound], the “Mole Fraction Hexamer max (obsd)” value is listed as 48.5 ± 0.3 ^d % in data set [1] (setting [12]) and 48.5 ± 0.3% in data set [1] (at 2 mM compound (highest concentration, footnote d), listed as nitrofurazone). Moreover, the “FAmin (minimum fractional activity derived from the titration)” value in data set [2] (setting [9]) was 0%. Moreover, the “Result of previous library screen” value in the data set on HsPBGS was “identified as a hexamer-stabilizing HsPBGS inhibitor”.

As to `CC1=C2[C@H](/C=C(\C)C(=O)O)CC[C@@H](C)[C@H]2CC1` [Valerenic acid, (2E)-3-[(4S,7R,7aR)-3,7-dimethyl-2,4,5,6,7,7a-hexahydro-1H-inden-4-yl]-2-methylacrylic acid], in data set [1] (setting [8]), the “Mole Fraction Hexamer max (obsd)” value is given as 64.1 ± 0.9%. In data set [2], the IC50 worked out at 8.2 ± 1.7 µM. Moreover, in data set [2] (setting [9]), the “FAmin (minimum fractional activity derived from the titration)” value is listed as 33.2 ± 3.9%. In data set [3], the “Result of initial screen (increase of mole fraction of hexamer)” value was “preliminary hits”.

`[Cd+2].[O-2]` [cadmium oxide]: the “Solubility, in words” value in data set [7] is “insolubility in reagents compatible with the HsPBGS activity assay”. Also, the “Result of initial screen (increase of mole fraction of hexamer)” value in data set [3] was “preliminary hits”.

Consider `N.N.[Cl][Pt][Cl]` [cis-Dichlorodiamine platinum, (SP-4-2)-diamminedichloridoplatinum, reference compound], for which the “Mole Fraction Hexamer max (obsd)” value in data set [1] (at 1 mM compound (footnote e), higher concentrations precipitate HsPBGS) is 53.0 ± 0.8 ^e %. Besides, in data set [2] (setting [9]), the “FAmin (minimum fractional activity derived from the titration)” value is listed as 0%. For the same compound, in data set [2] (setting [11]), the half-inhibitory concentration (IC50) turned out to be 17.1 ± 1.5 µM.

Take `O=[N+]([O-])c1cccc(CCl)c1` [m-Nitrobenzyl chloride]: the “Mole Fraction Hexamer max (obsd)” value in data set [1] (setting [8]) is 79.8 ± 1.3%. Further, the “FAmin (minimum fractional activity derived from the titration)” value in data set [2] (setting [9]) is 0%. In data set [2] (setting [11]), this compound had an IC50 of 27.1 ± 2.2 µM.

Take `C=Cc1ccc(C=C)cc1` [p-divinyl benzene]: the “Solubility, in words” value in data set [7] is “insolubility in reagents compatible with the HsPBGS activity assay”. The “Result of initial screen (increase of mole fraction of hexamer)” value in data set [3] is “preliminary hits”.

`O=C/C=C/c1ccccc1` [trans-cinnamaldehyde]: the “Result of initial screen (increase of mole fraction of hexamer)” value in data set [3] is listed as “preliminary hits”.
